ChEMBL document CHEMBL1811880, “Studies on quinones. Part 47. Synthesis of novel phenylaminophenanthridinequinones as potential antitumor agents” (Eur J Med Chem, 2011)

Experiments:
AGS = assay: Anticancer activity against human AGS cells after 3 days by MTT assay; type: functional, cell-based; conditions: 72 h
MRC5 [1] = assay: Anticancer activity against human MRC5 cells after 3 days by MTT assay; type: ADME, cell-based; conditions: MRC5, 72 h
SK-MES-1 = assay: Anticancer activity against human SKMES1 cells after 3 days by MTT assay; type: functional, cell-based; conditions: SK-MES-1, 72 h
J82 = assay: Anticancer activity against human J82 cells after 3 days by MTT assay; type: functional, cell-based; conditions: J82, 72 h
MRC5 [2] = assay: Selectivity index, ratio IC50 for human MRC5 cells to IC50 for human J82 cells; type: functional
MRC5 [3] = assay: Selectivity index, ratio IC50 for human MRC5 cells to IC50 for human SKMES1 cells; type: functional
MRC5 [4] = assay: Selectivity index, ratio IC50 for human MRC5 cells to IC50 for human AGS cells; type: functional

With `COc1ccc(OC)c(NC2=CC(=O)c3cnc4cccc(O)c4c3C2=O)c1` the IC50 (AGS) was 19.8 µM, the IC50 (MRC5 [1]) was 17.2 µM and the IC50 (SK-MES-1) was 13.5 µM. The IC50 (J82) was 0.61 µM and the “Ratio IC50” value (MRC5 [2]) was 28.

In the case of `O=C1CCCc2nc(-c3ccsc3)c3c(c21)C(=O)C=C(Nc1ccccc1)C3=O`, the IC50 (AGS) is reported as 0.35 µM, the IC50 (MRC5 [1]) is reported as 2.8 µM and the IC50 (SK-MES-1) is reported as 2.9 µM. For the same molecule, the IC50 (J82) was 2.5 µM, the “Ratio IC50” value (MRC5 [3]) was 6 and the “Ratio IC50” value (MRC5 [4]) was 6.

`COc1cc([C@@H]2c3cc4c(cc3[C@@H](O[C@@H]3O[C@@H]5CO[C@@H](C)O[C@H]5[C@H](O)[C@H]3O)[C@H]3COC(=O)[C@H]23)OCO4)cc(OC)c1O` [ETOPOSIDE] showed an IC50 (J82) of 0.8 µM.

With `O=C1C(Nc2ccccc2)=CC(=O)c2c1cnc1c2C(=O)CCC1` the IC50 (AGS) was 0.23 µM, the IC50 (MRC5 [1]) was 1.4 µM and the IC50 (SK-MES-1) was 1.3 µM. The IC50 (J82) was 2.1 µM, the “Ratio IC50” value (MRC5 [3]) was 6 and the “Ratio IC50” value (MRC5 [4]) was 6.

Molecule `O=C1CCCc2nc(-c3ccco3)c3c(c21)C(=O)C=CC3=O` has an IC50 (AGS) of 68 µM, an IC50 (MRC5 [1]) of 59 µM and an IC50 (SK-MES-1) of 96.9 µM. The IC50 (J82) was 80.4 µM.

Molecule `COc1ccc(OC)c(NC2=CC(=O)c3c(c(C)nc4c3C(=O)CCC4)C2=O)c1` has an IC50 (AGS) of 1.4 µM, an IC50 (MRC5 [1]) of 5 µM and an IC50 (SK-MES-1) of 21.7 µM. It also gave an IC50 (J82) of 7.1 µM.

`COc1ccc(NC2=CC(=O)c3c(c(C)nc4c3C(=O)CCC4)C2=O)cc1` gave an IC50 (AGS) of 1.2 µM, an IC50 (MRC5 [1]) of 5.2 µM and an IC50 (SK-MES-1) of 4.1 µM. It also gave an IC50 (J82) of 3 µM.

`CCN(C1=CC(=O)c2c(cnc3c2C(=O)CCC3)C1=O)c1ccccc1` was tested, and the IC50 (AGS) was 4.4 µM, the IC50 (MRC5 [1]) was 8.6 µM and the IC50 (SK-MES-1) was 11.7 µM. For the same molecule, the IC50 (J82) was 15.2 µM.

`O=C1CCCc2nc(-c3ccsc3)c3c(c21)C(=O)C=CC3=O` showed an IC50 (AGS) of 37.1 µM, an IC50 (MRC5 [1]) of 71 µM and an IC50 (SK-MES-1) of 76.7 µM. It also gave an IC50 (J82) of over 100 µM.

`CCN(C1=CC(=O)c2cnc3c(c2C1=O)C(=O)CCC3)c1ccccc1` gave an IC50 (AGS) of 17.1 µM, an IC50 (MRC5 [1]) of 19.6 µM and an IC50 (SK-MES-1) of 17.7 µM. The IC50 (J82) was 19.5 µM.

In the case of `Cc1nc2c(c3c1C(=O)C(Nc1ccc(O)cc1)=CC3=O)C(=O)CCC2`, the IC50 (AGS) is reported as 1.2 µM, the IC50 (MRC5 [1]) is reported as 2.6 µM and the IC50 (SK-MES-1) is reported as 3.2 µM. It also gave an IC50 (J82) of 1.9 µM.

Molecule `Cc1nc2c(c3c1C(=O)C(Nc1ccc(F)cc1)=CC3=O)C(=O)CCC2` has an IC50 (AGS) of 0.79 µM, an IC50 (MRC5 [1]) of 3 µM and an IC50 (SK-MES-1) of 3.3 µM. For the same molecule, the IC50 (J82) was 3.8 µM.

Work on `COc1ccc(OC)c(NC2=CC(=O)c3c(cnc4c3C(=O)CCC4)C2=O)c1` yielded an IC50 (AGS) of 0.32 µM, an IC50 (MRC5 [1]) of 2.6 µM and an IC50 (SK-MES-1) of 1.8 µM. For the same molecule, the IC50 (J82) was 2.5 µM, the “Ratio IC50” value (MRC5 [3]) was 6 and the “Ratio IC50” value (MRC5 [4]) was 6.

`O=C1CCCc2nc(-c3ccccc3)c3c(c21)C(=O)C=C(Nc1ccccc1)C3=O` was tested, and the IC50 (AGS) was 0.33 µM, the IC50 (MRC5 [1]) was 2.7 µM and the IC50 (SK-MES-1) was 2.8 µM. The IC50 (J82) was 2.9 µM, the “Ratio IC50” value (MRC5 [3]) was 6 and the “Ratio IC50” value (MRC5 [4]) was 6.

With `COc1ccc(OC)c(NC2=CC(=O)c3cnc4c(c3C2=O)C(=O)CCC4)c1` the IC50 (AGS) was 32.9 µM, the IC50 (MRC5 [1]) was 46.4 µM and the IC50 (SK-MES-1) was 21.3 µM. It also gave an IC50 (J82) of 56.7 µM.

`O=C1C=C(Nc2ccccc2)C(=O)c2c1cnc1c2C(=O)CCC1` showed an IC50 (AGS) of 3.9 µM, an IC50 (MRC5 [1]) of 5.9 µM and an IC50 (SK-MES-1) of 7.5 µM. The IC50 (J82) was 8.1 µM.

`O=C1CCCc2nc(-c3ccccc3)c3c(c21)C(=O)C=CC3=O` gave an IC50 (AGS) of 13.9 µM, an IC50 (MRC5 [1]) of 31.2 µM and an IC50 (SK-MES-1) of 73 µM. For the same molecule, the IC50 (J82) was 57.6 µM.

Work on `COc1ccc(NC2=CC(=O)c3c(cnc4c3C(=O)CCC4)C2=O)cc1` yielded an IC50 (AGS) of 0.47 µM, an IC50 (MRC5 [1]) of 2.6 µM and an IC50 (SK-MES-1) of 2 µM. It also gave an IC50 (J82) of 2.8 µM.

In the case of `COc1ccc(NC2=CC(=O)c3cnc4c(c3C2=O)C(=O)CCC4)cc1`, the IC50 (AGS) is reported as 2.2 µM, the IC50 (MRC5 [1]) is reported as 4.8 µM and the IC50 (SK-MES-1) is reported as 3.7 µM. For the same molecule, the IC50 (J82) was 4 µM.

Molecule `O=C1CCCc2nc(-c3ccco3)c3c(c21)C(=O)C=C(Nc1ccccc1)C3=O` has an IC50 (AGS) of 0.58 µM, an IC50 (MRC5 [1]) of 2.7 µM and an IC50 (SK-MES-1) of 3.1 µM. For the same molecule, the IC50 (J82) was 2.4 µM.

With `CN(C1=CC(=O)c2cnc3c(c2C1=O)C(=O)CCC3)c1ccccc1` the IC50 (AGS) was 8.3 µM, the IC50 (MRC5 [1]) was 7.3 µM and the IC50 (SK-MES-1) was 8.7 µM. The IC50 (J82) was 8.4 µM.

For `O=C1C=CC(=O)c2c1cnc1c2C(=O)CCC1`, the IC50 (J82) was 15.8 µM.

`COc1ccccc1NC1=CC(=O)c2c(c(C)nc3c2C(=O)CCC3)C1=O` was tested, and the IC50 (AGS) was 0.22 µM, the IC50 (MRC5 [1]) was 1.6 µM and the IC50 (SK-MES-1) was 4.3 µM. It also gave an IC50 (J82) of 3.7 µM.

`CN(C1=CC(=O)c2c(cnc3c2C(=O)CCC3)C1=O)c1ccccc1` showed an IC50 (AGS) of 4.7 µM, an IC50 (MRC5 [1]) of 7.5 µM and an IC50 (SK-MES-1) of 10.6 µM. For the same molecule, the IC50 (J82) was 12.9 µM.

In the case of `Cc1nc2c(c3c1C(=O)C(Nc1ccccc1)=CC3=O)C(=O)CCC2`, the IC50 (AGS) is reported as 0.65 µM, the IC50 (MRC5 [1]) is reported as 2 µM and the IC50 (SK-MES-1) is reported as 5.7 µM. For the same molecule, the IC50 (J82) was 4.2 µM.

With `COc1ccc(OC)c(NC2=CC(=O)c3c(cnc4cccc(O)c34)C2=O)c1` the IC50 (AGS) was 0.18 µM, the IC50 (MRC5 [1]) was 0.53 µM and the IC50 (SK-MES-1) was 0.63 µM. The IC50 (J82) was 1.4 µM.
